System: responders and non-responders to tradipitant treatment of atopic dermatitis
Assay: Association analysis of genetic markers with VAS response to tradipitant treatment (Example 6, Tables 10-11)
Type: in vivo, human
Experimental: A further study is performed to identify additional genetic markers that correlate directly with a positive response to tradipitant treatment. To identify the genetic markers, an association analysis is conducted using a logistic additive model. Visual Analog Scale (VAS) is used as the response outcome metric. The identified variants are shown below in Table 10.
Using the top significant SNPs chosen by p-value cutoff, individuals are classified on responder status to tradipitant treatment, with AUC of 0.95 (10 fold cross validation). Loss of function (LOF) and protein coding variants are investigated in terms of VAS outcomes on the cohort of cases.

## O=C(c1ccccc1Cl)c1cccnc1-c1nnn(Cc2cc(C(F)(F)F)cc(C(F)(F)F)c2)c1-c1ccncc1 [Tradipitant]
CTNNA3 rs57930837 AA genotype
  response to tradipitant treatment of atopic dermatitis by genotype: a majority of rs57930837 AA individuals do not respond to treatment
CTNNA3 rs57930837 CA genotype
  response to tradipitant treatment of atopic dermatitis by genotype: a majority of individuals having a CA rs57930837 genotype respond to treatment
CTNNA3 rs57930837 CC genotype
  response to tradipitant treatment of atopic dermatitis by genotype: all individuals having a CC rs57930837 genotype respond to treatment

Source: US11549147B2, “Treatment of atopic dermatitis with tradipitant” (VANDA PHARMACEUTICALS INC., priority 2017, dated 2023)
